For one data set, the system named is blood clot. Kind of data set: Thrombolysis assay (clot lysis). Particulars: sample solution in DMSO, 3 h at 37 °C, ABTS positive control, triplicate. Further details: species or system human. The procedure: The thrombolytic assay was performedaccording tomethodologyin the literature. A blood sample (3 mL) was collected from a healthy human donor, and 500 µL was transferred to pre-weighed, clean Eppendorf tubes. The tubes containing the blood wereweighed again andincubatedfor 1 h at 37 °C to induce clot formation. The serum was then discarded, and the tube containing theclot was weighed. An amount of 40 µL of sample solution in DMSO was added to the clot.The tubes were again incubated for 3 h at 37 °C, and the lysis resultswere observed. ABTS was used as a positivecontrol, while DMSO was used as a negative control in this assay. The experiment was performed in triplicate, and the lysis percentage was calculated using the formula below: % Age clot lysis =Initial clot weight−Final clot weight ×100/Initial clot weight

The subject of data set [1] is A549 lung cancer cell line. Kind of data set: MTT assay, cell viability. The class given is cell-based, human. The following applies: A549, 48 h, mean ± SD in triplicate. The procedure: The A549 cell line was treated with synthesized compounds in a final concentration of DMSO (dimethyl sulfoxide) of less than 1%.
The cytotoxic therapeutic potential of synthesized structural hybrids was evaluated usinga standard MTT (3-(4,5-dimethylthiazol-2-yl)-2,5-diphenyltetrazolium bromide) assay. The cells of theA549 cell line were grown, overnight, in a microculture of 96-well plates. […] Following this, 150 μL of control DMSO was added to formazan crystals.The percentage of cell viability was determined viaquantified absorbance in a microplate readerat 490 nm wavelength.

The next data set is described as follows: Hemolysis assay. It is filed as cell-based. The following applies: human, red blood cells (washed RBC pellet); read-out: Percentage Hemolysis ± SD. On the procedure: A fresh blood sample (5 mL) from a healthy donor was collected in an EDTA tube. The blood was transferred to microcentrifuge tubes and centrifugedfor 5 min at 1000 rpm to obtain the red blood cells (RBCs). The supernatant was then discarded, and the RBCpellet was washed three times with phosphate-buffered saline (PBS). The RBC pellet was collected after washing and 20µL of sample solution in DMSO was added. The tubes were incubated at 37 °C for 60 min. Having been removed from the incubator, the tubes were recentrifuged at 13,000 rpm for 5 min. The supernatant was collected and diluted with chilled PBS solution. Absorbance was recordedat 517 nm. […] The experiment wasconducted in triplicate, and the RBC lysis percentage was calculated using this formula [40]: % Age hemolysis =Absorbance of sample−Absorbance of negative control ×100/Absorbance of positive control

The structures appear in SMILES notation. Where “and” joins values, the source holds several entries; their conditions need not be identical. Equal entries are not always repeated.

In the case of `CCn1c(=NN=c2sc3cc(S(=O)(=O)O)ccc3n2CC)sc2cc(S(=O)(=O)O)ccc21` [ABTS, reference compound], in the data set with blood clot, the “Percentage Thrombolysis ± SD” value came to 86%.
As for `N.N.[Cl][Pt][Cl]` [Cisplatin, cisplatin, reference compound], inhibition in data set [1] was half-maximal at 3.88 ± 0.76 µM (IC50).
With `O=C(CSc1nnc(-c2cc3ccccc3o2)o1)Nc1ccccc1` [Compound 5a], the melting point (usually the temperature, or range, at which the solid turns liquid) fell in the range of 212 to 214 °C. Moreover, the “Percentage Cell viability A549 (Lung Cancer) ± SD” value in data set [1] amounted to 64.1 ± 1.72%. In addition, the hemolysis at 60 min in “Hemolysis assay” turned out to be 3.7 ± 0.008%. In addition, in the data set with blood clot, the “Percentage Thrombolysis ± SD” value was 56.8% and 56.8 ± 0.081%.
As for `O=C(CSc1nnc(-c2cc3ccccc3o2)o1)N1CCOCC1` [Compound 5b], the melting point lay in the range of 181 to 182 °C. Also, in data set [1], the “Percentage Cell viability A549 (Lung Cancer) ± SD” value is reported as 45.99 ± 4.22%. The hemolysis at 60 min in “Hemolysis assay” is 22.12 ± 0.008%. Moreover, in the data set with blood clot, the “Percentage Thrombolysis ± SD” value was 50.7% and 50.7 ± 0.081%.
With `COc1ccccc1NC(=O)CSc1nnc(-c2cc3ccccc3o2)o1` [Compound 5d], the melting point lay within 176 to 178 °C. For the same compound, the “Percentage Cell viability A549 (Lung Cancer) ± SD” value in data set [1] is 27.49 ± 1.90%. For the same compound, in data set [1] (Homo sapiens), half-maximal inhibition (IC50) required 6.3 ± 0.7 µM. Also, in the data set “Hemolysis assay”, the hemolysis at 60 min worked out at 5.02 ± 0.008%. Besides, the “Percentage Thrombolysis ± SD” value in the data set with blood clot is 53.5% and 53.5 ± 0.081%.
`CCOc1ccc(NC(=O)CSc2nnc(-c3cc4ccccc4o3)o2)cc1` [Compound 5e] had a melting point of 154 to 156 °C. In data set [1], the “Percentage Cell viability A549 (Lung Cancer) ± SD” value was found to be 34.47 ± 2.19%. Besides, half-maximal inhibition in data set [1] (Homo sapiens) (IC50) required 17.9 ± 0.46 µM. Further, the hemolysis at 60 min in “Hemolysis assay” was found to be 0.5 ± 0.008%. In addition, in the data set on blood clot, the “Percentage Thrombolysis ± SD” value was 52.4% and 52.4 ± 0.081%.
`CCN(CC)C(=O)CSc1nnc(-c2cc3ccccc3o2)o1` [Compound 5g]: the melting point is 96 to 97 °C. In addition, the “Percentage Cell viability A549 (Lung Cancer) ± SD” value in data set [1] came out at 41.45 ± 4.10%. Besides, in “Hemolysis assay”, the hemolysis at 60 min stood at 4.86 ± 0.047%. Further, the “Percentage Thrombolysis ± SD” value in the data set on blood clot is 48.3% and 48.3 ± 0.081%.
Take `O=C(CSc1nnc(-c2cc3ccccc3o2)n1-c1ccccc1)N1CCOCC1` [Compound 7b]: the melting point is 173 to 175 °C. Further, the “Percentage Cell viability A549 (Lung Cancer) ± SD” value in data set [1] is listed as 57.62 ± 4.94%. Further, in the data set “Hemolysis assay”, the hemolysis at 60 min stood at 0.1 ± 0.004%. In addition, the “Percentage Thrombolysis ± SD” value in the data set with blood clot is 52.5% and 52.5 ± 0.081%.
For the compound `Cc1ccc(NC(=O)CSc2nnc(-c3cc4ccccc4o3)n2-c2ccccc2)c(C)c1` [Compound 7f], the melting point lay in the range of 226 to 227 °C. The “Percentage Cell viability A549 (Lung Cancer) ± SD” value in data set [1] is reported as 99.1 ± 5.04%. Moreover, the hemolysis at 60 min in “Hemolysis assay” was 15.7 ± 0.081%. Besides, in the data set on blood clot, the “Percentage Thrombolysis ± SD” value was 61.4% and 61.4 ± 0.081%.
With `O=C(CSc1nnc(-c2cc3ccccc3o2)n1-c1ccccc1)Nc1ccc(Cl)cc1` [Compound 7g], the melting point is 229 to 230 °C. Further, the “Percentage Cell viability A549 (Lung Cancer) ± SD” value in data set [1] was 36.26 ± 0.41%. Besides, it took 19.8 ± 0.54 µM to reach half-maximal inhibition in data set [1] (Homo sapiens) (IC50). For the same compound, in the data set “Hemolysis assay”, the hemolysis at 60 min worked out at 23.4 ± 0.081%. For the same compound, in the data set on blood clot, the “Percentage Thrombolysis ± SD” value was 49.06% and 49.06 ± 0.047%.
`O=C(CSc1nnc(-c2cc3ccccc3o2)n1-c1ccccc1)Nc1ccc(Cl)cc1Cl` [Compound 7h] registered a melting point of 217 to 219 °C. Further, the “Percentage Cell viability A549 (Lung Cancer) ± SD” value in data set [1] is listed as 29.29 ± 3.98%. For the same compound, the IC50 (as a rule, the concentration needed to halve the response being measured) in data set [1] (Homo sapiens) came to 10.9 ± 0.94 µM. The hemolysis at 60 min in the data set “Hemolysis assay” stood at 14.8 ± 0.081%. Further, in the data set with blood clot, the “Percentage Thrombolysis ± SD” value is 48.1% and 48.1 ± 0.081%.
In turn, `C[C@@H](Oc1cc(-c2cnn(C3CCNCC3)c2)cnc1N)c1c(Cl)ccc(F)c1Cl` [Crizotinib, crizotinib, reference compound] showed an IC50 in data set [1] (Homo sapiens) of 8.54 ± 0.84 µM.
